# Reference: patent publication US5242900A (priority 1991, dated 1993)
# Columns and labels:
# normal dog = assay type: in vivo
# Procedure: (§1) Nine dogs of initially normal body weight were studied in accordance with Institutional Guidelines for animal experiments. Exteriorized, indwelling catheters were placed for intra-portal insulin administration and peripheral venous blood sampling. All were studied initially as normals. Subsequently all were pancreatectomized; five were autografted and the remaining four were treated pharmacologically both with the modified insulins described above in Example 1 and the corresponding unmodified conventional extracted insulins. Small venous blood samples were drawn via the indwelling blood sampling catheter at 30-60 minute intervals for plasma glucose determination in the subcutaneous experiments and at -10,0,3,6,10,20,30,60 minutes in the intravenous experiments. […] All animals were conscious and ambulatory during the studies.
# (§2) Plasma glucose was determined using a glucose analyzer (Beckman Instruments, Fullerton, CA). IRI was assayed using porcine insulin standard and ^125 I porcine insulin tracer (Novo Research Institute, Gentofte, Denmark), antiserum and a dextran-coated charcoal separation technique (Albisser et al, Diabetes 35:97-100, 1986). In the studies using porcine phosphorylated insulin, the above assay was performed as for porcine insulin, but using equimolar standards of phosphorylated insulin. Parallel standard curves were obtained. […] All values were expressed as mean ±SEM unless otherwise indicated.
# pancreatectomized dogs = assay: Subcutaneous studies in pancreatectomized (diabetic) dogs: plasma glucose; assay type: in vivo
# Procedure: as §1
# At the conclusion of experimental protocols, it was verified that all nine of the animals were diabetic by extirpating the grafts (from the transplant recipients) or withdrawing insulin therapy (from the pancreatectomized animals).
# as §2
# Subsequent to pancreatectomy the animals were studied repeatedly, now in the post-absorptive, hyperglycemic state of 14-20 mM, because the conventional insulin depot administered the previous day had become depleted.
substance,measurement,setting,value
phosphorylated insulin: porcine insulin chemically phosphorylated with POCl3/phosphoric acid in DMF; 3 or 5 negatively charged adducts; about 5-10% unmodified,first pass extraction by the liver compared with insulin,"normal dog; dog, in vivo",not extracted to the same extent
same,hypoglycemic effect,"normal dog; normal dog, intra-portal, 2-fold larger dose",without major hypoglycemic effect
same,drop in blood glucose,"normal dog; normal dog, intra-portal, at 15 minutes",0.2 mM
same,decrease in plasma glucose,"normal dog; normal dog, intra-portal, double dosage",about 0.5 mM
same,early hypoglycemia,"pancreatectomized dogs; dog, in vivo, sc",never occurred
same,lipo-genesis (fat-like deposits) in the areas of repeated subcutaneous injections,"pancreatectomized dogs; dog, in vivo, sc",palpable fat-like deposits
same,time euglycemia maintained,"pancreatectomized dogs; fasted pancreatectomized dog, starting 14-20 mM, subcutaneous, 30-150 nMol",2 to 6 h
same,glucose lowering effect at larger dose,"pancreatectomized dogs; pancreatectomized dog, subcutaneous, 4-fold larger doses",occurred more rapidly and lasted longer
same,plasma glucose lowered to,"pancreatectomized dogs; pancreatectomized dog, subcutaneous, approximately 4 nMol/kg",4.5 to 6.0 mM
same,plasma glucose with repeated injections,"pancreatectomized dogs; pancreatectomized dog, subcutaneous, smaller dosage repeated at 6-8h intervals",maintain plasma glucose in the range normal for postabsorptive dogs
same,body weight regained after loss following pancreatectomy,pancreatectomized dogs; pancreatectomized dogs,1 to 3 kg
